Each structure is given as a SMILES string.

In the case of `Cl.O=C(c1ccc(NS(=O)(=O)c2ccc(-c3ccc(Br)cc3)cc2)cc1)N1CCN(c2ccncc2)CC1`, the melting point fell in the range of 201 to 205 °C. `O=C(C1CCN(c2ccncc2)CC1)N1CCN(S(=O)(=O)c2ccc3ccccc3c2)CC1` [Example 2, 1-(2-naphthylsulphonyl)-4-[1-(4-pyridyl)piperidin-4-ylcarbonyl]piperazine] yielded a melting point of 172 to 173 °C. Next, `O=C(CNS(=O)(=O)c1ccc2ccccc2c1)NC(CNC(=O)N1CCN(c2ccncc2)CC1)C(=O)N1CCCCC1` (stereo not shown) [Example 3, 2-(2-naphthalenesulphonamido)-N-{1-piperidinocarbonyl-2-[4-(4-pyridyl)piperazin-1-ylcarbonylamino]-ethyl}acetamide]: 223 to 226 °C; `O=C(CC1CCN(c2ccncc2)CC1)NCC(NC(=O)CNS(=O)(=O)c1ccc2ccccc2c1)C(=O)N1CCCCC1` (stereo not shown) [Example 4, 2-(2-naphthalenesulphonamido)-N-(1-piperidinocarbonyl-2-{2-[1-(4-pyridyl)piperidin-4-yl]acetamido}ethyl)acetamide]: 148 to 149 °C; `CCOC(=O)C(CNC(=O)C1CCN(c2ccncc2)CC1)NC(=O)CNS(=O)(=O)c1ccc2ccccc2c1` (stereo not shown) [Example 6, N-{1-ethoxycarbonyl-2-[1-(4-pyridyl)-piperidin-4-ylcarbonylamino]ethyl}-2-(2-naphthalenesulphonamido)-acetamide]: 142 to 145 °C. Next, `O=C(CNS(=O)(=O)c1ccc2ccccc2c1)NC(CNC(=O)C1CCN(c2ccncc2)CC1)C(=O)O` (stereo not shown) [Example 9, 2-[2-(2-naphthalenesulphonamido)acetamido]-3-[1-(4-pyridyl)piperidin-4-ylcarbonylamino]propionic acid]: 108 to 111 °C (dec.); `O=C(CNS(=O)(=O)c1ccc2ccccc2c1)NCC(NC(=O)C1CCN(c2ccncc2)CC1)C(=O)N1CCCCC1` (stereo not shown) [Example 11, 2-(2-naphthalenesulphonamido)-N-{2-piperidinocarbonyl-2-[1-(4-pyridyl)piperidin-4-ylcarbonylamino]ethyl}acetamide]: 200 to 202 °C. Next, `O=C(CNS(=O)(=O)c1ccc2ccccc2c1)N[C@@H](CC(=O)N1CCN(c2ccncc2)CC1)C(=O)N1CCCCC1` [Example 18, 2-(2-naphthalenesulphonamido)-N-{(1S)-1-(piperidinocarbonyl)-2-[4-(4-pyridyl)piperazin-1-ylcarbonyl]ethyl}-acetamide]: 201 to 203 °C. In turn, `O=C(CCNS(=O)(=O)c1ccc2ccccc2c1)NC(CNC(=O)C1CCN(c2ccncc2)CC1)C(=O)N1CCCCC1` (stereo not shown) [Example 20, 3-(2-naphthalenesulphonamido)-N-{1-(piperidinocarbonyl)-2-[1-(4-pyridyl)piperidin-4-ylcarbonylamino]ethyl}propionamide] yielded a melting point of 201 to 203 °C. `Cc1ccc(NC(=O)NC(CNC(=O)C2CCN(c3ccncc3)CC2)C(=O)N2CCCCC2)cc1` (stereo not shown) [Example 22, N-{2-piperidinocarbonyl-2-[3-(4-tolyl)ureido]ethyl}-1-(4-pyridyl)-piperidine-4-carboxamide]: the melting point lay within 252 to 253 °C. In turn, `O=C(CNS(=O)(=O)c1ccc2ccccc2c1)NCCNC(=O)C1CCN(c2ccncc2)CC1` [Example 30, 2-(2-naphthalenesulphonamido)-N-{2-[1-(4-pyridyl)piperidin-4-ylcarbonylamino]ethyl}acetamide] gave a melting point of 107 to 109 °C. Next, `O=C(CNS(=O)(=O)c1ccc2ccccc2c1)NCCNC(=O)C1CCN(c2ccncn2)CC1` [Example 32, 2-(2-naphthalenesulphonamido)-N-{2-[1-(4-pyrimidinyl)piperidin-4-ylcarbonylamino]ethyl}acetamide]: 178 to 179 °C. Compound `Cc1cc(N2CCC(C(=O)NCCNC(=O)CNS(=O)(=O)c3ccc4ccccc4c3)CC2)nc(N)n1` [Example 34, N-{2-[1-(2-amino-6-methylpyrimidin-4-yl)piperidin-4-ylcarbonylamino]ethyl}-2-(2-naphthalenesulphonamido)acetamide] showed a melting point of 225 to 226 °C. With `O=C(O)C1CN(C(=O)C2CCN(c3ccncc3)CC2)CCN1S(=O)(=O)c1ccc2ccccc2c1` (stereo not shown) [Example 43, 1-(2-naphthylsulphonyl)-4-[1-(4-pyridyl)piperidin-4-ylcarbonyl]-piperazine-2-carboxylic acid], the melting point lay in the range of 188 to 193 °C. As for `O=C(C1CCN(c2ccncc2)CC1)N1CCCN(S(=O)(=O)c2ccc3ccccc3c2)CC1` [Example 49, 1-(2-naphthylsulphonyl)-4-[1-(4-pyridyl)piperidin-4-ylcarbonyl]-1,4-diazepane], the figure is 178 to 180 °C; as for `O=C(N1CCN(c2ccncc2)CC1)N1CCN(S(=O)(=O)c2ccc3ccccc3c2)CC1` [Example 50, 1-(2-naphthylsulphonyl)-4-[4-(4-pyridyl)-piperazin-1-ylcarbonyl]piperazine], 210 to 212 °C. Regarding `O=C(C1CCN(c2ccncn2)CC1)N1CCN(S(=O)(=O)c2ccc3ccccc3c2)CC1` [Example 55, 1-(2-naphthylsulphonyl)-4-[1-(4-pyrimidinyl)piperidin-4-ylcarbonyl]-piperazine], the melting point fell in the range of 203 to 205 °C. Turning to `O=C(C1CCN(c2ccncn2)CC1)N1CCN(S(=O)(=O)/C=C/c2ccc(Cl)cc2)CC1` [Example 57, 1-[(E)-4-chlorostyrylsulphonyl]-4-[1-(4-pyrimidinyl)piperidin-4-ylcarbonyl]piperazine], the melting point lay in the range of 209 to 210 °C. Next, `Cc1ccc(-c2ccc(S(=O)(=O)N3CCN(C(=O)C4CCN(c5ccncc5)CC4)CC3)cc2)cc1` [Example 58, 1-(4′-methylbiphenyl-4-ylsulphonyl)-4-[1-(4-pyridyl)piperidin-4-ylcarbonyl]piperazine]: 213 to 217 °C; `O=C(C1CCN(c2ccncc2)CC1)N1CCN(S(=O)(=O)c2ccc(-c3ccccn3)cc2)CC1` [Example 60, 1-[4-(2-pyridyl)phenylsulphonyl]-4-[1-(4-pyridyl)piperidin-4-ylcarbonyl]piperazine]: 224 to 226 °C; `O=C(O)C1CN(S(=O)(=O)c2ccc3ccccc3c2)CCN1C(=O)C1CCN(c2ccncc2)CC1` (stereo not shown) [Example 61, 2-carboxy-4-(2-naphthylsulphonyl)-1-[1-(4-pyridyl)piperidin-4-ylcarbonyl]piperazine]: 225 to 228 °C (dec.). On to `O=C(C1CCN(c2ccncc2)CC1)N1CCN(S(=O)(=O)c2ccc3ccccc3c2)C(Cc2ccccc2)C1` (stereo not shown) [Example 66, 2-benzyl-1-(2-naphthylsulphonyl)-4-[1-(4-pyridyl)piperidin-4-ylcarbonyl]piperazine], for which the melting point was 186 to 188 °C.

Turning to `O=C(C1CCN(c2ccncn2)CC1)N1CCN(S(=O)(=O)c2ccc3cc(Cl)ccc3c2)CC1` [Example 69, 1-(6-chloronaphth-2-ylsulphonyl)-4-[1-(4-pyrimidinyl)-piperidin-4-ylcarbonyl]piperazine], the melting point is 218 to 219 °C. Next, `Nc1nccc(N2CCC(C(=O)N3CCN(S(=O)(=O)c4ccc5cc(Cl)ccc5c4)CC3)CC2)n1` [Example 70, 4-[1-(2-aminopyrimidin-4-yl)piperidin-4-ylcarbonyl]-1-(6-chloronaphth-2-ylsulphonyl)piperazine]: 265 to 267 °C; `O=C(C1CCN(c2nc(Cl)nc(Cl)n2)CC1)N1CCN(S(=O)(=O)c2ccc3cc(Cl)ccc3c2)CC1` [Example 73, 1-(6-chloronaphth-2-ylsulphonyl)-4-[1-(4,6-dichloro-1,3,5-triazin-2-yl)piperidin-4-ylcarbonyl]piperazine]: 230 to 233 °C; `CCOC(=O)C1CN(S(=O)(=O)c2ccc3cc(Br)ccc3c2)CCN1C(=O)C1CCN(c2ccncc2)CC1` (stereo not shown) [Example 82, 4-(6-bromonaphth-2-ylsulphonyl)-2-ethoxycarbonyl-1-[1-(4-pyridyl)-piperidin-4-ylcarbonyl]piperazine]: 117 to 121 °C.

Take `O=C(O)C1CN(S(=O)(=O)c2ccc3cc(Br)ccc3c2)CCN1C(=O)C1CCN(c2ccncc2)CC1` (stereo not shown) [Example 83, 4-(6-bromonaphth-2-ylsulphonyl)-2-carboxy-1-[1-(4-pyridyl)piperidin-4-ylcarbonyl]piperazine]: the melting point is 216 to 222 °C (dec.). As for `O=C(C1CN(S(=O)(=O)c2ccc3cc(Br)ccc3c2)CCN1C(=O)C1CCN(c2ccncc2)CC1)N1CCOCC1` (stereo not shown) [Example 84, 4-(6-bromonaphth-2-ylsulphonyl)-2-morpholinocarbonyl-1-[1-(4-pyridyl)-piperidin-4-ylcarbonyl]piperazine], the figure is 235 to 237 °C. As for `Cc1cc(N2CCC(C(=O)N3CCN(S(=O)(=O)c4ccc5cc(Cl)ccc5c4)CC3)CC2)nc(N)n1` [Example 86, 4-[1-(2-amino-6-methylpyrimidin-4-yl)piperidin-4-ylcarbonyl]-1-(6-chloronaphth-2-ylsulphonyl)piperazine], the figure is 210 to 212 °C. As for `O=C(c1ccc(NS(=O)(=O)/C=C/c2ccc(Cl)cc2)cc1)N1CCN(c2ccncc2)CC1` [Example 89, N-{4-[4-(4-pyridyl)piperazin-1-ylcarbonyl]phenyl}-(E)-4-chlorostyrenesulphonamide], the figure is 207 to 209 °C; as for `O=C(C1CCN(S(=O)(=O)c2ccc3cc(Br)ccc3c2)CC1)N1CCN(c2ccncc2)CC1` [Example 92, 1-[1-(6-bromonaphth-2-ylsulphonyl)piperidin-4-ylcarbonyl]-4-(4-pyridyl)piperazine], 229 to 230 °C.

The term melting point denotes the temperature, or range, at which the solid turns liquid.
